Laboratory results: patent US10525110B2, “Methods for inducing partial apoptosis using caspase polypeptides” (Bellicum Pharmaceuticals, Inc., priority 2013, dated 2020)

Key:
[1] = system: iCasp9M-transduced EBV-CTLs; assay: CID-induced elimination of GFP+ iCasp9M-transduced EBV-CTLs (flow cytometry for GFP); type: cell-based, human
[2] = system: iCasp9M.IRES.IL-12-transduced cells; assay: IL-12 ELISA of supernatant of iCasp9M.I.IL-12-transduced EBV-CTLs; type: cell-based, human; conditions: 10 nM CID; detection limit 8 pg/mL
Protocol: The concentration of interferon-γ (IFN-γ), IL-2, IL-4, IL-5, IL-10, and tumor necrosis factor-α (TNFα) in CTL culture supernatants was measured using the Human Th1/Th2 cytokine cytometric Bead Array (BD Pharmingen) and the concentration of IL-12 in the culture supernatants was measured by enzyme-linked immunosorbent assay (ELISA; R&D Systems, Minneapolis, Minn.) according to the instructions of the manufacturer.
To determine whether iCasp9M could effectively destroy cells genetically modified to express an active transgene product, the ability of iCasp9M to eliminate EBV-CTLs stably expressing IL-12 was measured. While IL-12 was undetectable in the supernatant of nontransduced and iCasp9M.IRES.GFP-transduced CTLs, the supernatant of iCasp9M.IRES.IL-12-transduced cells contained 324 pg/mL to 762 pg/mL IL-12. After administration of 10 nM CID, however, the IL-12 in the supernatant fell to undetectable levels (<8 pg/mL). Thus, even without prior sorting for high transgene expressing cells, activation of iCasp9M is sufficient to completely eliminate all T cells producing biologically relevant levels of IL-12 (FIG. 6). The function of iCasp9M when coexpressed with IL-12 is graphically represented by bar graphs in FIG. 6. […] Three days after a second antigenic stimulation, the levels of IL-12 in the culture supernatant were measured by IL-12 ELISA (detection limit of this assay is 8 pg/mL). […]

[3] = system: gene-modified allodepleted cells; assay: Induction of apoptosis with AP20187 in gene-modified allodepleted cells (annexin V/7-AAD); type: cell-based, human
Protocol: Suicide gene functionality was assessed by adding a small molecule synthetic homodimerizer, AP20187 (Ariad Pharmaceuticals; Cambridge, Mass.), at 10 nM final concentration the day following CD19 immunomagnetic selection. Cells were stained with annexin V and 7-amino-actinomycin (7-AAD)(BD Pharmingen) at 24 hours and analyzed by flow cytometry. Cells negative for both annexin V and 7-AAD were considered viable, cells that were annexin V positive were apoptotic, and cells that were both annexin V and 7-AAD positive were necrotic. The percentage killing induced by dimerization was corrected for baseline viability as follows: Percentage killing=100%−(% Viability in AP20187-treated cells÷% Viability in non-treated cells).
Cells were maintained in T cell medium containing 50 U/ml IL-2 until 22 days after transduction. A portion of cells was reactivated on 24-well plates coated with […] OKT3 and 1 μg/ml anti-CD28 (Clone CD28.2, BD Pharmingen, San Jose, Calif.) for 48 to 72 hours. CD19 expression and suicide gene function in both reactivated and non-reactivated cells were measured on day 24 or 25 post transduction.
In some experiments, cells also were cultured for 3 weeks post transduction and stimulated with 30G-irradiated allogeneic PBMC at a responder:stimulator ratio of 1:1. After 4 days of co-culture, a portion of cells was treated with 10 nM AP20187. Killing was measured by annexin V/7-AAD staining at 24 hours, and the effect of dimerizer on bystander virus-specific T cells was assessed by pentamer analysis on AP20187-treated and untreated cells.

iCasp9-transduced MSCs = assay: Apoptosis of iCasp9-transduced undifferentiated MSCs in vitro (annexin V-PE/7-AAD); type: cell-based, human; conditions: CID 50 nM, 24 hours, FACS example
Protocol: Undifferentiated MSCs. The chemical inducer of dimerization (CID) (AP20187; ARIAD Pharmaceuticals, Cambridge, Mass.) was added at 50 nM to iCasp9-transduced MSCs cultures in complete medium. Apoptosis was evaluated 24 hours later by FACS analysis, after cell harvest and staining with annexin V-PE and 7-AAD in annexin V binding buffer (BD Biosciences, San Diego, Calif.). Control iCasp9-transduced MSCs were maintained in culture without exposure to CID.
The proapoptotic gene product iCasp9 can activated by a small chemical inducer of dimerization (CID), AP20187, an analogue of tacrolimus that binds the FK506-binding domain present in the iCasp9 product. Non-transduced MSCs have a spontaneous rate of apoptosis in culture of approximately 18% (±7%) as do iCasp9-positive cells at baseline (15±6%, P=0.47). Addition of CID (50 nM) to MSC cultures after transduction with iCasp9-ΔCD19 results in the apoptotic death of more than 90% of iCasp9-positive cells within 24 hrs (93±1%, P<0.0001), while iCasp9-negative cells retain an apoptosis index similar to that of non-transduced controls (20±7%, P=0.99 and P=0.69 vs. non-transduced controls with or without CID respectively) (see FIGS. 17A and 70B). […] Apoptosis was evaluated 24 hours later by FACS analysis, after cell harvest and staining with annexin V-PE and 7-AAD. […]

[4] = system: iCasp9-ΔCD19-transduced MSCs; assay: In vivo killing of iCasp9-ΔCD19-transduced MSCs in SCID mice (luminescence, qPCR)
[5] = system: EBV-specific and CMV-specific T cells; assay: Pentamer analysis of virus-specific T cells after AP20187 treatment of allostimulated cells; type: cell-based, human; conditions: 10 nM after 4 days reactivation with allogeneic PBMC
[6] = 10 nM, 24 hours, day following immunomagnetic selection

## CC[C@H](C(=O)N1CCCC[C@H]1C(=O)O[C@H](CCc1ccc(OC)c(OC)c1)c1cccc(OCC(=O)NCC(CNC(=O)COc2cccc([C@@H](CCc3ccc(OC)c(OC)c3)OC(=O)[C@@H]3CCCCN3C(=O)[C@@H](CC)c3cc(OC)c(OC)c(OC)c3)c2)CN(C)C)c1)c1cc(OC)c(OC)c(OC)c1 [AP20187]
[1]; CTLs that survived CID treatment
  reduction in mean fluorescence intensity of GFP after CID: 70%
[1]; antigenic stimulation followed by a second 10-nM dose of CID
  further elimination of the surviving GFP+ T cells: No further elimination
[1]; titration, F-Casp9M.I.GFPhigh, survival of GFP+ cells on day 7
  CID sufficient to obtain the maximal deletion effect: 1 nM
[1]; unselected iCasp9M-transduced CTLs, 5 different donors
  GFP+ cells eliminated after a single 10-nM dose of CID: 91.3%
[2]
  IL-12 in the supernatant after CID: < 8 pg/mL
[3]; [6]
  AP20187-treated cells remaining viable: about 5.5%±2.5
  Killing efficiency after correction for baseline viability: about 92.9%±3.8
[3]; day 24 or 25, OKT3/aCD28-reactivated cells
  killing efficiency: ~84.6%±8.0
[3]; day 24 post transduction, 10 nM
  residual viability following treatment with AP20187: 19.6±5.6%
[3]; in vitro, listed as small-molecule dimerizer
  apoptosis / elimination of iCasp9-modified T cells after dimerizer (summary statement): > 90%
iCasp9-transduced MSCs
  annexin positive iCasp9-CD19-positive cells (iCasp pos/CID): Ninety-three
  annexin positive negative population (iCasp neg/CID): 19%
[4]; after one week, qPCR
  surviving iCasp9-positive cells, % of the original population: 0.7%
[4]; luminescence
  effect on cells negative for iCasp9: not affected
[5]
  effect on virus-specific T cells: spares (and thereby enriches) viral reactive subpopulations
